{
  "source": "patent US20020165281A1",
  "about": "“Treatment of anoxic encephalophathy by administration of N-acetylcystein” (priority 2001, published 2002)",
  "test_system": "anoxic encephalopathy and ischemic events",
  "assay": "Clinical case reports of patients with anoxic encephalopathy or ischemic events treated with N-acetylcystein",
  "type": "in vivo, human",
  "source_text": "A person was admitted to the intensive care unit in a deep coma. Several hours prior to the admission, they suffered from a persistent ventricular arrhythmia that led to a cardiac arrest. They required nine successive electroshocks in order to reestablish their regular cardiac rhythm. The total interruption time of their blood supply to the brain was considered to be more than ten minutes. […] Their pupils were fixed and dilated, and they were placed on a mechanical ventilation. As they were unable to trigger the ventilator by themself, they were placed on an automatic mode of mechanical ventilation. There was no improvement in their condition over the next forty-eight hours. A neurologist determined their condition to be irreversible and hopeless. A second neurologist concurred. During the forty-eight hour interval, the patient was given 600 mg of N-acetylcystein in a twenty percent solution, administered via a nasal-gastric tube every twelve hours. […] They awakened and was able to communicate by head nods and facial expressions.\nA high school teacher went into a cardiac arrest while driving in their car. By the time they arrived at a hospital emergency room and was resuscitated, a period of twenty to thirty minutes of an interruption of the blood supply to the brain had elapsed. Even though the cardiac resuscitation efforts were successful, they remained in a deep coma, a vegetative state, and required a life supporting mechanical ventilation. Over the next two years, they remained on mechanical ventilation, gastrostomy tube feedings, and in a coma without any improvement in their cerebral or neurological functions. Their prognosis for recovery was considered hopeless.\nApproximately two years after the cardiac arrest, they were administered 600 mg of N-acetylcystein in a twenty percent solution twice daily. Over the next several months, they made a remarkable recovery. […] They became alert and able to respond initially to tacit and aural stimuli, and later they were able to understand simple sentences.\nA person lapsed into a coma from a cerebral hemorrhage secondary to a vascular stroke. As their condition continued to deteriorate, they required a life supporting mechanical ventilation. Several months later they developed a brain abscess that required a craniotomy. This was followed by the appearance of an intense seizure disorder.\nFollowing the surgery, it became possible to gradually wean […] from the respirator, but […] remained in a semi-vegetative state, unable to respond to aural stimuli and fed by a gastrostomy tube. […] remained completely bedridden.\nMore than three years after the initial event, they were administered 600 mg of N-acetylcystein in a twenty percent solution twice daily via their gastrostomy tube. Over the next several months, they made a remarkable recovery. […] By the third month of treatment, they were able to sit in a wheelchair and express their wishes to be driven around the facility where they resided. By the fourth month of the treatment, they regained the capacity to express themself verbally even though it was restricted to a vocabulary of mono and disyllabic words. They also regained the ability to lift their head, which i previously lay flexed upon their chest, without the use of an assisting device. […] Their neurological and cerebral recoveries continued to progress.\nA medical technician experienced a series of multiple strokes that led to a semi-comatose state lasting more than two years. Their medical condition deteriorated over time with the development of multi-organ failures. They required a mechanical ventilation and hemo-dialysis for life support. Three years after the onset of their condition and several months after all efforts to wean them from the respirator failed, they were initially administered 600 mg of N-acetylcystein in a twenty percent solution twice daily via a gastrostomy tube.",
  "data": [
    {"smiles": "CC(=O)N[C@@H](CS)C(=O)O", "note": "[N-acetylcystein]", "values": [
      {"measurement": "Overall therapeutic efficacy indicated by the four cases", "setting": "acute phase and many months or years after the initial event", "result": "reversing a coma as well as other neurological deficits"},
      {"measurement": "Breathing / respirator dependence, Case No. 1", "setting": "person on mechanical ventilation, 600 mg every twelve hours via nasal-gastric tube, forty-eight hour period", "result": "able to breath partially on their own without the respirator"},
      {"measurement": "Coma / neurological outcome, Case No. 2", "setting": "person, coma for two years after cardiac arrest, 600 mg in twenty percent solution twice daily, over several months", "result": "awakened from their coma"},
      {"measurement": "Verbal response, Case No. 2", "setting": "person, coma for two years, 600 mg twice daily, by the fourth month of treatment", "result": "able to respond verbally"},
      {"measurement": "Coma / neurological outcome, Case No. 1", "setting": "person, deep coma after cardiac arrest, 600 mg in twenty percent solution via nasal-gastric tube every twelve hours, forty-eight hour period", "result": "completely revived from their coma"},
      {"measurement": "Respirator dependence, Case No. 4", "setting": "person, multiple strokes, semi-comatose, ventilated, 600 mg twice daily via gastrostomy tube increased to 2400 mg daily", "result": "improved and no longer needed the respirator"},
      {"measurement": "Ambulation, Case No. 3", "setting": "person, previously bedridden, 600 mg twice daily via gastrostomy tube, by the fifth month of treatment", "result": "able to ambulate more than one hundred steps with the aid of a walker or the wheelchair"},
      {"measurement": "Neurological outcome, Case No. 3", "setting": "person, semi-vegetative state more than three years after cerebral hemorrhage/stroke, 600 mg twice daily via gastrostomy tube, over several months", "result": "became completely alert and able to respond to simple verbal commands"},
      {"measurement": "Respirator dependence, Case No. 2", "setting": "person, two years on mechanical ventilation, 600 mg twice daily", "result": "no longer needed the respirator"}
    ]}
  ]
}
